{"source": "patent US20240358693A1", "about": "“METHODS OF TREATING PAIN” (Aisa Pharma, Inc., priority 2023, published 2024)", "tested_on": "participants with SSc-RP", "assay": "Average severity of weekly RP attacks (VAS 0-10 cm scale)", "assay_type": "in vivo, human", "excerpt": "The absolute change in average severity of weekly RP attacks (VAS 0-10 cm scale) from baseline to the end of each Dosing Period was and will be a secondary outcome variable. The sponsor-developed participant-informed diary will be used to record data. Average severity of weekly RP attacks is defined as the total severity scores of RP attacks divided by total number of RP attacks within the last 7 days of each dosing period. Total severity scores of RP attacks during the last 7 days of screening period divided by the total number of RP attacks will be used as baseline for the analysis of all periods. The variable will be calculated similar to frequency data as before.", "key": {"[1]": {"conditions": "Pooled Cilnidipine 10 mg and Cilnidipine 10 mg + Tadalafil 5 mg, n=1, by Baseline RCS, second subgroup, ITT Population - Part A"}, "[2]": {"conditions": "Pooled Cilnidipine 10 mg and Cilnidipine 10 mg + Tadalafil 5 mg, n=2, by Baseline RCS, first subgroup, ITT Population - Part A"}, "[3]": {"conditions": "Pooled Cilnidipine 10 mg and Cilnidipine 10 mg + Tadalafil 5 mg, n=3, Excluding Outliers, ITT Population - Part A"}, "[4]": {"conditions": "Pooled Cilnidipine 10 mg and Cilnidipine 10 mg + Tadalafil 5 mg, n=3, ITT Population - Part A"}, "[5]": {"conditions": "Pooled Cilnidipine 10 mg and Cilnidipine 10 mg + Tadalafil 5 mg, Excluding Outliers, ITT Population - Part A"}, "[6]": {"conditions": "Pooled Cilnidipine 10 mg and Cilnidipine 10 mg + Tadalafil 5 mg, Excluding Outliers, by Baseline RCS, first subgroup, ITT Population - Part A"}, "[7]": {"conditions": "Pooled Cilnidipine 10 mg and Cilnidipine 10 mg + Tadalafil 5 mg, Excluding Outliers, by Baseline RCS, second subgroup, ITT Population - Part A"}, "[8]": {"conditions": "Pooled Cilnidipine 10 mg and Cilnidipine 10 mg + Tadalafil 5 mg, ITT Population - Part A"}, "[9]": {"conditions": "Pooled Cilnidipine 10 mg and Cilnidipine 10 mg + Tadalafil 5 mg, first Baseline RCS subgroup block (not named), ITT Part A"}, "[10]": {"conditions": "Pooled Cilnidipine 10 mg and Cilnidipine 10 mg + Tadalafil 5 mg, first Baseline RCS subgroup block (not named), ITT Part A, score 0-10"}, "[11]": {"conditions": "Pooled Cilnidipine 10 mg and Cilnidipine 10 mg + Tadalafil 5 mg, second Baseline RCS subgroup block (not named), ITT Part A"}, "[12]": {"conditions": "Pooled Cilnidipine 10 mg and Cilnidipine 10 mg + Tadalafil 5 mg, second Baseline RCS subgroup block (not named), ITT Part A, score 0-10"}, "[13]": {"conditions": "Pooled Cilnidipine 20 mg and Cilnidipine 20 mg + Tadalafil 5 mg, n=1, by Baseline RCS, second subgroup, ITT Population - Part A"}, "[14]": {"conditions": "Pooled Cilnidipine 20 mg and Cilnidipine 20 mg + Tadalafil 5 mg, n=3, by Baseline RCS, first subgroup, ITT Population - Part A"}}, "data": [{"compound": "COCCOC(=O)C1=C(C)NC(C)=C(C(=O)OC/C=C/c2ccccc2)C1c1cccc([N+](=O)[O-])c1", "note": "(stereo not shown) [Cilnidipine, cilnidipine]", "values": [{"measurement": "Average Severity of Weekly RP Attacks (All Attacks), Percent Change from Baseline, Median", "setting": "Pooled (over cilnidipine doses), ITT Population - Part A", "result": "−7.69", "unit": "%"}, {"measurement": "Average Severity (0-10) of Weekly Symptomatic RP Attacks, Mean", "setting": "[1]", "result": 5.23}, {"measurement": "Average Severity (0-10) of Weekly Symptomatic RP Attacks, Median", "setting": "[1]", "result": 5.23}, {"measurement": "Average Severity of Weekly Symptomatic RP Attacks, Change from Baseline, Mean", "setting": "[1]", "result": "−1.13"}, {"measurement": "Average Severity of Weekly Symptomatic RP Attacks, Change from Baseline, Median", "setting": "[1]", "result": "−1.13"}, {"measurement": "Average Severity of Weekly Symptomatic RP Attacks, Percent Change from Baseline, Mean", "setting": "[1]", "result": "−17.81", "unit": "%"}, {"measurement": "Average Severity of Weekly Symptomatic RP Attacks, Percent Change from Baseline, Median", "setting": "[1]", "result": "−17.81", "unit": "%"}, {"measurement": "Average Severity (0-10) of Weekly Symptomatic RP Attacks, Mean", "setting": "[2]", "result": 3.34}, {"measurement": "Average Severity (0-10) of Weekly Symptomatic RP Attacks, Median", "setting": "[2]", "result": 3.34}, {"measurement": "Average Severity of Weekly Symptomatic RP Attacks, Change from Baseline, Mean", "setting": "[2]", "result": "−1.22"}, {"measurement": "Average Severity of Weekly Symptomatic RP Attacks, Change from Baseline, Median", "setting": "[2]", "result": "−1.22"}, {"measurement": "Average Severity of Weekly Symptomatic RP Attacks, Percent Change from Baseline, Mean", "setting": "[2]", "result": "−20.18", "unit": "%"}, {"measurement": "Average Severity of Weekly Symptomatic RP Attacks, Percent Change from Baseline, Median", "setting": "[2]", "result": "−20.18", "unit": "%"}, {"measurement": "Average Severity (0-10) of Weekly Symptomatic RP Attacks, Mean", "setting": "[3]", "result": 3.97}, {"measurement": "Average Severity (0-10) of Weekly Symptomatic RP Attacks, Median", "setting": "[3]", "result": 3.77}, {"measurement": "Average Severity of Weekly Symptomatic RP Attacks, Change from Baseline, Mean", "setting": "[3]", "result": "−1.19"}, {"measurement": "Average Severity of Weekly Symptomatic RP Attacks, Change from Baseline, Median", "setting": "[3]", "result": "−1.13"}, {"measurement": "Average Severity of Weekly Symptomatic RP Attacks, Percent Change from Baseline, Mean", "setting": "[3]", "result": "−19.39", "unit": "%"}, {"measurement": "Average Severity of Weekly Symptomatic RP Attacks, Percent Change from Baseline, Median", "setting": "[3]", "result": "−17.81", "unit": "%"}, {"measurement": "Average Severity (0-10) of Weekly Symptomatic RP Attacks, Mean", "setting": "[4]", "result": 3.97}, {"measurement": "Average Severity (0-10) of Weekly Symptomatic RP Attacks, Median", "setting": "[4]", "result": 3.77}, {"measurement": "Average Severity of Weekly Symptomatic RP Attacks, Change from Baseline, Mean", "setting": "[4]", "result": "−1.19"}, {"measurement": "Average Severity of Weekly Symptomatic RP Attacks, Change from Baseline, Median", "setting": "[4]", "result": "−1.13"}, {"measurement": "Average Severity of Weekly Symptomatic RP Attacks, Percent Change from Baseline, Mean", "setting": "[4]", "result": "−19.39", "unit": "%"}, {"measurement": "Average Severity of Weekly Symptomatic RP Attacks, Percent Change from Baseline, Median", "setting": "[4]", "result": "−17.81", "unit": "%"}, {"measurement": "Average Severity of Weekly RP Attacks (All Attacks), Change from Baseline, Mean", "setting": "[5]", "result": "−1.34"}, {"measurement": "Average Severity of Weekly RP Attacks (All Attacks), Change from Baseline, Median", "setting": "[5]", "result": "−1.32"}, {"measurement": "Average Severity of Weekly RP Attacks (All Attacks), Mean", "setting": "[5]", "result": 3.62}, {"measurement": "Average Severity of Weekly RP Attacks (All Attacks), Median", "setting": "[5]", "result": 3.05}, {"measurement": "Average Severity of Weekly RP Attacks (All Attacks), Percent Change from Baseline, Mean", "setting": "[5]", "result": "−23.02", "unit": "%"}, {"measurement": "Average Severity of Weekly RP Attacks (All Attacks), Percent Change from Baseline, Median", "setting": "[5]", "result": "−21.20", "unit": "%"}, {"measurement": "Average Severity of Weekly Symptomatic RP Attacks (Mean)", "setting": "[6]", "result": 3.34}, {"measurement": "Average Severity of Weekly Symptomatic RP Attacks (Median)", "setting": "[6]", "result": 3.34}, {"measurement": "Average Severity of Weekly Symptomatic RP Attacks, Change from Baseline, Mean", "setting": "[6]", "result": "−1.22"}, {"measurement": "Average Severity of Weekly Symptomatic RP Attacks, Change from Baseline, Median", "setting": "[6]", "result": "−1.22"}, {"measurement": "Average Severity of Weekly Symptomatic RP Attacks, Percent Change from Baseline, Mean", "setting": "[6]", "result": "−20.18", "unit": "%"}, {"measurement": "Average Severity of Weekly Symptomatic RP Attacks, Percent Change from Baseline, Median", "setting": "[6]", "result": "−20.18", "unit": "%"}, {"measurement": "Average Severity of Weekly Symptomatic RP Attacks (Mean)", "setting": "[7]", "result": 5.23}, {"measurement": "Average Severity of Weekly Symptomatic RP Attacks (Median)", "setting": "[7]", "result": 5.23}, {"measurement": "Average Severity of Weekly Symptomatic RP Attacks, Change from Baseline, Mean", "setting": "[7]", "result": "−1.13"}, {"measurement": "Average Severity of Weekly Symptomatic RP Attacks, Change from Baseline, Median", "setting": "[7]", "result": "−1.13"}, {"measurement": "Average Severity of Weekly Symptomatic RP Attacks, Percent Change from Baseline, Mean", "setting": "[7]", "result": "−17.81", "unit": "%"}, {"measurement": "Average Severity of Weekly Symptomatic RP Attacks, Percent Change from Baseline, Median", "setting": "[7]", "result": "−17.81", "unit": "%"}, {"measurement": "Average Severity of Weekly RP Attacks (All Attacks), Change from Baseline, Mean", "setting": "[8]", "result": "−1.34"}, {"measurement": "Average Severity of Weekly RP Attacks (All Attacks), Change from Baseline, Median", "setting": "[8]", "result": "−1.32"}, {"measurement": "Average Severity of Weekly RP Attacks (All Attacks), Mean", "setting": "[8]", "result": 3.62}, {"measurement": "Average Severity of Weekly RP Attacks (All Attacks), Median", "setting": "[8]", "result": 3.05}, {"measurement": "Average Severity of Weekly RP Attacks (All Attacks), Percent Change from Baseline, Mean", "setting": "[8]", "result": "−23.02", "unit": "%"}, {"measurement": "Average Severity of Weekly RP Attacks (All Attacks), Percent Change from Baseline, Median", "setting": "[8]", "result": "−21.20", "unit": "%"}, {"measurement": "Average Severity of Weekly RP Attacks (All Attacks), Percent Change from Baseline, Mean", "setting": "[9]", "result": "−23.94", "unit": "%"}, {"measurement": "Average Severity of Weekly RP Attacks (All Attacks), Percent Change from Baseline, Median", "setting": "[9]", "result": "−23.94", "unit": "%"}, {"measurement": "Average Severity of Weekly RP Attacks (All Attacks), Change from Baseline, Mean", "setting": "[10]", "result": "−1.35"}, {"measurement": "Average Severity of Weekly RP Attacks (All Attacks), Change from Baseline, Median", "setting": "[10]", "result": "−1.35"}, {"measurement": "Average Severity of Weekly RP Attacks (All Attacks), Mean", "setting": "[10]", "result": 2.97}, {"measurement": "Average Severity of Weekly RP Attacks (All Attacks), Median", "setting": "[10]", "result": 2.97}, {"measurement": "Average Severity of Weekly RP Attacks (All Attacks), Percent Change from Baseline, Mean", "setting": "[11]", "result": "−21.20", "unit": "%"}, {"measurement": "Average Severity of Weekly RP Attacks (All Attacks), Percent Change from Baseline, Median", "setting": "[11]", "result": "−21.20", "unit": "%"}, {"measurement": "Average Severity of Weekly RP Attacks (All Attacks), Change from Baseline, Mean", "setting": "[12]", "result": "−1.32"}, {"measurement": "Average Severity of Weekly RP Attacks (All Attacks), Change from Baseline, Median", "setting": "[12]", "result": "−1.32"}, {"measurement": "Average Severity of Weekly RP Attacks (All Attacks), Mean", "setting": "[12]", "result": 4.90}, {"measurement": "Average Severity of Weekly RP Attacks (All Attacks), Median", "setting": "[12]", "result": 4.90}, {"measurement": "Average Severity (0-10) of Weekly Symptomatic RP Attacks, Mean", "setting": "[13]", "result": 5.06}, {"measurement": "Average Severity (0-10) of Weekly Symptomatic RP Attacks, Median", "setting": "[13]", "result": 5.06}, {"measurement": "Average Severity of Weekly Symptomatic RP Attacks, Change from Baseline, Mean", "setting": "[13]", "result": "−1.79"}, {"measurement": "Average Severity of Weekly Symptomatic RP Attacks, Change from Baseline, Median", "setting": "[13]", "result": "−1.79"}, {"measurement": "Average Severity of Weekly Symptomatic RP Attacks, Percent Change from Baseline, Mean", "setting": "[13]", "result": "−26.14", "unit": "%"}, {"measurement": "Average Severity of Weekly Symptomatic RP Attacks, Percent Change from Baseline, Median", "setting": "[13]", "result": "−26.14", "unit": "%"}, {"measurement": "Average Severity (0-10) of Weekly Symptomatic RP Attacks, Mean", "setting": "[14]", "result": 2.85}, {"measurement": "Average Severity (0-10) of Weekly Symptomatic RP Attacks, Median", "setting": "[14]", "result": 2.40}, {"measurement": "Average Severity of Weekly Symptomatic RP Attacks, Change from Baseline, Mean", "setting": "[14]", "result": "−1.06"}, {"measurement": "Average Severity of Weekly Symptomatic RP Attacks, Change from Baseline, Median", "setting": "[14]", "result": "−0.33"}, {"measurement": "Average Severity of Weekly Symptomatic RP Attacks, Percent Change from Baseline, Mean", "setting": "[14]", "result": "−24.28", "unit": "%"}, {"measurement": "Average Severity of Weekly Symptomatic RP Attacks, Percent Change from Baseline, Median", "setting": "[14]", "result": "−12.02", "unit": "%"}]}]}
